The values below come from US12630548B2, “Azetidine derivatives for the treatment of integrin associated diseases” (The University of Nottingham, priority 2020, dated 2026).

The nature of series [1]: ChromlogD (lipophilicity). The series is classed as physicochemical. The note with it: pH 7.4. From the text:
ChromlogD is a measure of lipophilicity of a compound (R. J. Young et al. Drug Discovery Today 2011, […]). Lipophilicity is a key physicochemical property that plays a crucial role in determining ADMET (absorption, distribution, metabolism, excretion, and toxicity) properties and the overall suitability of drug candidates.

For series [2], the target named is hERG (Homo sapiens, UniProt Q12809). Kind of series: hERG Q-patch. The note with it: read-out: hERG Q-patch (pIC50) (converted). The series is classed as cell-based. An excerpt: The human ether-a-go-go related gene (hERG) encodes the inward rectifying voltage gated potassium channel in the heart (IKr) that is involved in cardiac repolarisation. Inhibition of the hERG current causes QT interval prolongation resulting in potentially fatal ventricular tachyarrhythmia called Torsade de Pointes. A number of drugs have been withdrawn from late stage clinical trials due to these cardiotoxic effects, therefore it is important to identify inhibitors early in drug discovery (W. Haverkamp et al. Eur Heart J., 2000, 21(15), 1216). A low potency in this screen is advantageous for compound development.
(In general: Block of hERG is tested as a sign of cardiac risk.)

Series [3] has as its target ανβ6 (Homo sapiens, UniProt P06756+P18564). The experiment in a line: Cell adhesion assay, αvβ6 integrin. The series is classed as cell-based. On the procedure: The assays were performed as described in the literature (P. A. Procopiou, N. A. Anderson, J. Barrett, T. N. Barrett, M. H. J. Crawford, B. J. Fallon, A. P. Hancock, J. Le, S. Lemma, R. P. Marshall, J. Morrell, J. M. Pritchard, J. E. Rowedder, P. Saklatvala, R. J. Slack, S. L. Sollis, C. J. Suckling, L. R. Thorp, G. Vitulli, et al., J. Med. Chem. 2018, 61, 8417-8443; S. B. Ludbrook, S. T. Barry, C. J. Delves, C. M. T. Horgan, Biochem. J. 2003, 369, 311-318).

The mark [4] stands for this setting: cell adhesion data, read-out: ανβ6 IC50.

Where two headings read alike, the source gives them in different places.

ανβ6, sequence (P06756 31-889 limits assumed): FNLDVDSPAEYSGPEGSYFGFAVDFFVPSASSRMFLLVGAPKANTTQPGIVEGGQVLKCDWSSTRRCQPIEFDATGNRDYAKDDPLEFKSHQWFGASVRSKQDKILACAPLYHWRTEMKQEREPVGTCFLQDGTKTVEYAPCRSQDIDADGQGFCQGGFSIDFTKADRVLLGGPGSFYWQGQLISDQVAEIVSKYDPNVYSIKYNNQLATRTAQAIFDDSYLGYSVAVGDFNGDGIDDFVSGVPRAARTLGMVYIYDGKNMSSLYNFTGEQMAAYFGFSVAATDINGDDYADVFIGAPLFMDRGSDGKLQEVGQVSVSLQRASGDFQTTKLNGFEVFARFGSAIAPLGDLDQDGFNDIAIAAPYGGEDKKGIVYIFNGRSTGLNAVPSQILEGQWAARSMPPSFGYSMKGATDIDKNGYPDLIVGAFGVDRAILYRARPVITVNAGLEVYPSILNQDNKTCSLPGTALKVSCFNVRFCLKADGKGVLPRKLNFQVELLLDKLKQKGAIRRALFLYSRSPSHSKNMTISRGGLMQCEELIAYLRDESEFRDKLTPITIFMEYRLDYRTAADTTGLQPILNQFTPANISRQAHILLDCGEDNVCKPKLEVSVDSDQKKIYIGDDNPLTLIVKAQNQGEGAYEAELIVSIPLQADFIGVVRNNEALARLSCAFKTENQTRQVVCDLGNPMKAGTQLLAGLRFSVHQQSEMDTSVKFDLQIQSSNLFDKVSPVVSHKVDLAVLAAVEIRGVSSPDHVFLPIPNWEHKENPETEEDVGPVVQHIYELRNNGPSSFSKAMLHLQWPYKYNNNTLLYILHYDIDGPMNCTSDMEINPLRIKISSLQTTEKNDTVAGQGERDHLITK
ανβ6, sequence (P06756 891-1048 limits assumed): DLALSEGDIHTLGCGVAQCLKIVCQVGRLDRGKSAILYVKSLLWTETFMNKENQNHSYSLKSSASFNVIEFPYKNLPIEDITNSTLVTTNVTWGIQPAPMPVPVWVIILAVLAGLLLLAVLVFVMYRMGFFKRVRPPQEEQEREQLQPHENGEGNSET
ανβ6, sequence (P18564 22-788): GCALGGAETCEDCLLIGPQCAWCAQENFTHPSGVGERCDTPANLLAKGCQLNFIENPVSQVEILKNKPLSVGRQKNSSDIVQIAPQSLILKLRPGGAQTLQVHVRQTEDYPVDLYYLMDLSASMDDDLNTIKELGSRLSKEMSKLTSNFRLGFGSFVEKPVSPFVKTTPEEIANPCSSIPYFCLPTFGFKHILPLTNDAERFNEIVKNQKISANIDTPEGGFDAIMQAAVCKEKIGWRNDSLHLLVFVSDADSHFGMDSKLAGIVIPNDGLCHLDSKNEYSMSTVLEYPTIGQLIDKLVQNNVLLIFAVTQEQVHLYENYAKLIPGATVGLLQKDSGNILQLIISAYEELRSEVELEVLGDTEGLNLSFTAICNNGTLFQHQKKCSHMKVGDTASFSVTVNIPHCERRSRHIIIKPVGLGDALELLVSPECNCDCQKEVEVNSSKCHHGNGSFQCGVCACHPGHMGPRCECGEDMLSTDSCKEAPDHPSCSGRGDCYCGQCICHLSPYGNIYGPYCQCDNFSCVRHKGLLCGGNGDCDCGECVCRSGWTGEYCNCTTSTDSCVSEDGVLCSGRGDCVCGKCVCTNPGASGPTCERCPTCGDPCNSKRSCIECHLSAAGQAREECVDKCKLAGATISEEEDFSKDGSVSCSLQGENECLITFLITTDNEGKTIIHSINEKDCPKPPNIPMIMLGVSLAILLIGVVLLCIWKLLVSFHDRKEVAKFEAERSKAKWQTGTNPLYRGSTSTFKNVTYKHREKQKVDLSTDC
hERG, sequence (Q12809 whole entry): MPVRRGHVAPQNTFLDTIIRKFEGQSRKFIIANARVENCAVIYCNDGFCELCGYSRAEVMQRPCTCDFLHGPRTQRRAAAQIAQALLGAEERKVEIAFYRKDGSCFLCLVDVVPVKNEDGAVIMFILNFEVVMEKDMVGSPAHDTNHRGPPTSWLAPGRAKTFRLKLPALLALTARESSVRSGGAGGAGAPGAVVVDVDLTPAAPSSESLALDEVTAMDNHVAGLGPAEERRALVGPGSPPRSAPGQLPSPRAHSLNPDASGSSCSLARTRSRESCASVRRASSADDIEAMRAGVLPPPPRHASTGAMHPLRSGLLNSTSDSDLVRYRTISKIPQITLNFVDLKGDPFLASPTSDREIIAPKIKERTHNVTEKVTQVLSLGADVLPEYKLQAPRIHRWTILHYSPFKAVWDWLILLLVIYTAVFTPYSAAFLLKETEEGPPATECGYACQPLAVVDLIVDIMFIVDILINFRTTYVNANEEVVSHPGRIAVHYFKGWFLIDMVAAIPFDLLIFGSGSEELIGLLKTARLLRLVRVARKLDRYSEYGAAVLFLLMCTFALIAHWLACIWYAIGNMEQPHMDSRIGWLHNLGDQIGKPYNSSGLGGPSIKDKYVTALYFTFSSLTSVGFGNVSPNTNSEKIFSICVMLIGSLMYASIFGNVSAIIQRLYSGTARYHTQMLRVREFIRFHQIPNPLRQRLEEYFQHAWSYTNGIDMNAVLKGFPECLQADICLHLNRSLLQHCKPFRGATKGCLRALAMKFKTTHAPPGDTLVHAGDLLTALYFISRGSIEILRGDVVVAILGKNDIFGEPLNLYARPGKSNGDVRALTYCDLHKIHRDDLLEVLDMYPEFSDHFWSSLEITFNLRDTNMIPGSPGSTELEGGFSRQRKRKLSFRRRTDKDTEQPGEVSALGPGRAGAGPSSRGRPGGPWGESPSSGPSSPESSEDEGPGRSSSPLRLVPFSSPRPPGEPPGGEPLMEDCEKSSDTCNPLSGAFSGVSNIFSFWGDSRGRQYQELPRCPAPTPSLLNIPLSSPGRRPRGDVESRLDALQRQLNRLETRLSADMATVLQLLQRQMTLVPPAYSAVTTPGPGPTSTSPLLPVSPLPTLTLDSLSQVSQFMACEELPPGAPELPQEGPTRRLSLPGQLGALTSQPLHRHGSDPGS

Usually chromatographic logD stands for lipophilicity estimated from chromatographic retention. Compound `Cc1cccc(S(=O)(=O)N2CC(C(=O)N[C@@H](CNC(=O)CCCCc3ccc4c(n3)NCCC4)C(=O)O)C2)c1` [Example 6A] displayed a chromatographic logD in series [1] of 2.27. Besides, the IC50 is over 31600 nM in series [2]; under 250 nM in series [3] (setting [4]); 5.01 nM in series [3] (comparison table, Example 6A, read-out: αvβ6 (pIC50) (converted)).

Take `CN(CCCCc1ccc2c(n1)NCCC2)CC[C@H](NC(=O)C1CN(S(=O)(=O)c2cccc(Cl)c2)C1)C(=O)O` [Example 39, (S)-2-(1-((3-chlorophenyl)sulfonyl)azetidine-3-carboxamido)-4-(methyl(4-(5,6,7,8-tetrahydro-1,8-naphthyridin-2-yl)butyl)amino)butanoic acid]: the IC50 in series [3] (setting [4]) was under 250 nM.

On to `Cc1ccc(S(=O)(=O)N2CC(C(=O)N[C@@H](CCN(C)CCCCc3ccc4c(n3)NCCC4)C(=O)O)C2)cc1` [Example 40, (S)-4-(Methyl(4-(5,6,7,8-tetrahydro-1,8-naphthyridin-2-yl)butyl)amino)-2-(4-methylbenzenesulfonylazetidine-3-carboxamido)butanoic acid], for which the IC50 in series [3] (setting [4]) is under 250 nM.
